# “Also recorded” adds a separate entry of the source.
# How the values were obtained:
# [1] = system: trypsin (trypsin-sepharose beads); details: incubated with trypsin; ref [34]; cited from earlier work
# [2] = target: pancreatic trypsin (Sus scrofa, UniProt P00761); assay: Trypsin inhibitory assay; type: biochemical; details: recombinantly produced SFTI-1
# [3] = ref [10], [12]; cited from earlier work
# [4] = system: cellular membranes; details: ref [13]; cited from earlier work
# [5] = system: mammalian cells; details: ref [13]; cited from earlier work
# [6] = NMR characterization in solution; type: physicochemical; details: in-cell produced SFTI-1, approximately 0.2 mM, 80 mM potassium phosphate pH 6.5, 90% H2O/10% 2H2O, 298 K
# pancreatic trypsin, sequence (P00761 9-231): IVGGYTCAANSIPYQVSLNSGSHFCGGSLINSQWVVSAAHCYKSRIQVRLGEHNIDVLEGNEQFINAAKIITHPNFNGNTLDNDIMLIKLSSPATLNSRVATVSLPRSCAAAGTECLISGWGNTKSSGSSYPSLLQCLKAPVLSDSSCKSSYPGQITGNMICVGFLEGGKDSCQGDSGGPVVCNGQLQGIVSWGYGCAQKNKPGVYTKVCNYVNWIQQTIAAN
compound,measurement,setting,value
"CC[C@H](C)[C@@H]1NC(=O)[C@@H]2CCCN2C(=O)[C@@H]2CCCN2C(=O)[C@H]([C@@H](C)CC)NC(=O)[C@H](CO)NC(=O)[C@H](CCCCN)NC(=O)[C@H]([C@@H](C)O)NC(=O)[C@@H]2CSSC[C@H](NC1=O)C(=O)N[C@@H](Cc1ccccc1)C(=O)N1CCC[C@H]1C(=O)N[C@@H](CC(=O)O)C(=O)NCC(=O)N[C@@H](CCCNC(=N)N)C(=O)N2 [SFTI-1, sunflower trypsin inhibitor 1]",equilibrium between cyclic and linear forms with trypsin,[1],reach equilibrium between the cyclic and the linear forms when incubated with trypsin
same,inhibition of trypsin,[2],actively inhibit trypsin; also recorded: fully active
same,stability to thermal or enzymatic degradation,[3],exceptional stability to thermal or enzymatic degradation
same,crossing of cellular membranes,[4],able to cross cellular membranes
same,toxicity to mammalian cells,[5],non-toxic to mammalian cells
same,aggregation state in solution,[6],monodispersed
